Measured values as given in paper PMC7582905, “Effect of Disulfide Cyclization of Ultrashort Cationic Lipopeptides on Antimicrobial Activity and Cytotoxicity” (International Journal of Molecular Sciences, 2020).
≈ marks a conversion by molar mass, not a printed value. Where two headings read alike, the source gives them in different places. Where a SMILES comes first, the peptide text is derived from it. Bridges are numbered along the chain shown (N, C = ends). The star is where a group is joined. Palmitoyl = CCCCCCCCCCCCCCCC(=O)*

Tests used:
[1] = RP-HPLC determination of peptide hydrophobicity; type: physicochemical; settings: 0.1% TFA; for reduced retention time t’R: RP-HPLC retention as measure of hydrophobicity, Waters X-Bridge Shield RP-18 3.0 × 100 mm, 3.5 μm, linear 20–65% acetonitrile in water over 30 min, 0.5 mL/min, 25.0 °C, UV 214 nm, 1 g/L, triplicate
Procedure: The peptides were analyzed by RP-HPLC to determine relative hydrophobicity vs. retention time of each compound. In general, more hydrophobic lipopeptides will elute later than hydrophilic ones. Using this simple rule enables comparison of hydrophobicity by reduced retention times (t’R) and differences in retention time between the cyclic analog and its linear parent lipopeptide (Table 1). It can be deduced that the presence of cystine moiety has led to increased hydrophobicity. All cyclic lipopeptides are more hydrophobic than their linear counterparts but the effect of disulfide cyclization on retention is different in each pair. The highest increase in retention was noticed for the shortest lipopeptides L1 (C16-KKK-NH2) and C1 (C16-CKKKC-NH2). The differences between lipopeptides with one arginine residue indicate that its position is crucial for retention and therefore hydrophobicity. To learn how the arginine position affects hydrophobicity, the retention time of compound L2 (C16-KKKK-NH2) or C2 (C16-CKKKKC-NH2) was subtracted from that of the lipopeptides with one arginine residue, linear (L3, L4, L5, L6) or cyclic (C3, C4, C5, C6), respectively. In Figure 2 the effect of arginine position on retention time is related to unsubstituted lipopeptide.
To determine peptide hydrophobicity, a Waters Alliance e2695 system with a Waters 2998 PDA Detector (software-Empower 3, Waters, Milford, MA, USA) was used. All analyses were carried out on a Waters X-Bridge Shield RP-18 column (3.0 × 100 mm, 3.5 μm particle size, 130 Å pore size). The Shield Technology column with embedded polar groups was used to minimize interactions of unreacted silanol groups with basic lipopeptides. The peptides were dissolved in water (0.1% TFA, v/v) up to a concentration of 1 g/L. UV detection at 214 nm was used, and samples (10 μL) were eluted with a linear 20–65% acetonitrile gradient in deionized water over 30 min at 25.0 ± 0.1 °C. The mobile phase flow rate was 0.5 mL/min. Both eluents contained 0.1% (v/v) of TFA. Each peptide sample was analyzed in triplicate. Maximum standard deviation and coefficient of variation were 0.042 and 0.25%, respectively.

[2] = tested on: Candida albicans ATCC 10231; type: cell-based
Procedure: (§1) The Staphylococcus aureus ATCC 25923, Staphylococcus epidermidis ATCC 14990, Escherichia coli ATCC 25922, Pseudomonas aeruginosa ATCC 9027, Candida albicans ATCC 10231, Candida glabrata ATCC 15126, Candida lipolytica PCM 2680-FY, and Candida tropicalis PCM 2709-FY strains were acquired from the Polish Collection of Microorganisms (PCM, Polish Academy of Sciences, Wrocław, Poland) and from the American Type Culture Collection (ATCC). All the strains were stored at −80 °C in Roti-Store cryo vials and before the tests were transferred into fresh Mueller–Hinton broth (MHB, Biocorp, Warsaw, Poland) for bacteria or RPMI-1640 (Sigma-Aldrich, Steinheim, Germany) for fungi and incubated for 24 h at 37 °C. Then, the cultures were seeded on Mueller–Hinton agar (BioMaxima, Lublin, Poland) or Sabouraud dextrose agar (SDA, BioMaxima, Lublin, Poland) plates, respectively, and incubated as just mentioned. These agar cultures were used for further microbiological assays. Cell densities for all assays were adjusted spectrophotometrically (Multiskan GO Microplate Spectrophotometer, Thermo Fisher Scientific, Vantaa, Finland) at 600 and 660 nm for bacteria and fungi, respectively.
(§2) The MICs were determined by broth microdilution method according to the Clinical and Laboratory Standard Institute guidelines For this purpose, initial inoculums of bacteria (5 × 10^5 CFU/mL) in MHB and yeasts (2 × 10^3 CFU/mL) in RPMI-1640 with 2% D-glucose were exposed to the ranging concentration of lipopeptides (0.5–256 μg/mL) and incubated at 37 °C for 18 h and 24 h, respectively. The experiments were conducted on 96-well microtiter polystyrene plates. The growth was assessed visually after incubation and the MIC was assumed as the lowest peptide concentration at which a noticeable growth of microorganisms was inhibited. All experiments were conducted in triplicate.

[3] = tested on: Candida glabrata ATCC 15126; type: cell-based
Procedure: as §1, §2

[4] = tested on: Candida lipolytica PCM 2680-FY; type: cell-based; settings: 24 h
Procedure: as §1, §2

[5] = tested on: Candida tropicalis PCM 2709-FY; type: cell-based; settings: 24 h
Procedure: as §1, §2

[6] = tested on: Escherichia coli ATCC 25922; type: cell-based
Procedure: as §1, §2

[7] = tested on: Pseudomonas aeruginosa ATCC 9027; type: cell-based
Procedure: as §1, §2

[8] = tested on: Staphylococcus epidermidis ATCC 14990; type: cell-based
Procedure: as §1, §2

[9] = tested on: Candida albicans ATCC 10231; type: cell-based; remark: listed apart in the source
Procedure: as §1
(§3) The assay was performed to evaluate the effect of the lipopeptides in preventing biofilm formation. The preparation of inoculums was followed by a ca. 500-fold dilution of the 24 h cultures of microorganisms. Briefly, 50 μL of the compounds in the concentration range, diluted in appropriate medium, were prepared on 96-well polystyrene flat-bottom plates. Subsequently, the 50 μL of the bacterial/fungal inoculums were added to reach the same microbial density as that in the MBEC assay. After 24 h of incubation at 37 °C, the wells were rinsed three times with PBS and the fresh media with resazurin (4 g/L) were added. The MBICs were read after 1 h. All experiments were conducted in triplicate.

[10] = tested on: Candida glabrata ATCC 15126; type: cell-based; remark: listed apart in the source
Procedure: as §1, §3

[11] = tested on: Candida lipolytica PCM 2680-FY; type: cell-based
Procedure: as §1, §3

[12] = tested on: Candida tropicalis PCM 2709-FY; type: cell-based
Procedure: as §1, §3

[13] = tested on: Escherichia coli ATCC 25922; type: cell-based; remark: listed apart in the source
Procedure: as §1, §3

[14] = tested on: Pseudomonas aeruginosa ATCC 9027; type: cell-based; remark: listed apart in the source
Procedure: as §1, §3

[15] = tested on: Staphylococcus aureus ATCC 25923; type: cell-based
Procedure: as §1, §3

[16] = tested on: Staphylococcus epidermidis ATCC 14990; type: cell-based; remark: listed apart in the source
Procedure: as §1, §3

[17] = broth microdilution (CLSI), RPMI-1640 with 2% D-glucose, 2 × 10^3 CFU/mL, 37 °C, 24 h, visual, triplicate
[18] = broth microdilution (CLSI), RPMI-1640 with 2% D-glucose, 2 × 10^3 CFU/mL, 37 °C, visual, triplicate
[19] = broth microdilution (CLSI), MHB, 5 × 10^5 CFU/mL, 37 °C, 18 h, visual, triplicate
[20] = prevention of biofilm formation on polystyrene plates, 24 h at 37 °C, resazurin, triplicate

| reduced retention time t’R [1] | MIC C. albicans ([2]; ATCC 10231, 24 h) | MIC C. glabrata ([3]; ATCC 15126, 24 h) | MIC C. lipolytica [4] | MIC C. tropicalis ([5]; PCM 2709-FY) | MIC E. coli ([6]; ATCC 25922, 18 h) | MIC P. aeruginosa ([7]; ATCC 9027, 18 h) | MIC S. epidermidis ([8]; ATCC 14990, 18 h) | Structure (SMILES) | MBIC C. albicans ([9]; ATCC 10231, 24 h) | MBIC C. glabrata ([10]; ATCC 15126, 24 h) | MBIC C. lipolytica ([11]; 24 h) | MBIC C. tropicalis ([12]; PCM 2709-FY, 24 h) | MBIC E. coli ([13]; ATCC 25922, 24 h) | MBIC P. aeruginosa ([14]; ATCC 9027, 24 h) | MBIC S. aureus ([15]; ATCC 25923, 24 h) | MBIC S. epidermidis ([16]; ATCC 14990, 24 h) | other results |
| --- | --- | --- | --- | --- | --- | --- | --- | --- | --- | --- | --- | --- | --- | --- | --- | --- | --- |
| 15.58 min | 32 µg/mL (≈ 38.8 µM) | 16 µg/mL (≈ 19.4 µM) | 8 µg/mL (≈ 9.71 µM) | 8 µg/mL (≈ 9.71 µM) | 8 µg/mL (≈ 9.71 µM) | 64 µg/mL (≈ 77.7 µM) | 4 µg/mL (≈ 4.85 µM) | CCCCCCCCCCCCCCCC(=O)N[C@@H](CCCNC(=N)N)C(=O)N[C@@H](CCCNC(=N)N)C(=O)N[C@@H](CCCCN)C(=O)N[C@@H](CCCCN)C(N)=O [L7, C16-RRKK-NH2] (Palmitoyl-RRKK-NH2) | 32 µg/mL | 32 µg/mL | 16 µg/mL | 8 µg/mL | 32 µg/mL | 64 µg/mL | 16 µg/mL | 16 µg/mL | – |
| 15.01 min | 32 µg/mL (≈ 40.2 µM) | 64 µg/mL (≈ 80.4 µM) | 8 µg/mL (≈ 10 µM) | 8 µg/mL (≈ 10 µM) | 8 µg/mL (≈ 10 µM) | 64 µg/mL (≈ 80.4 µM) | 8 µg/mL (≈ 10 µM) | CCCCCCCCCCCCCCCC(=O)N[C@@H](CCCCN)C(=O)N[C@@H](CCCCN)C(=O)N[C@@H](CCCNC(=N)N)C(=O)N[C@@H](CCCCN)C(N)=O [L5, C16-KKRK-NH2] (Palmitoyl-KKRK-NH2) | 64 µg/mL | 128 µg/mL | 32 µg/mL | 16 µg/mL | 32 µg/mL | 64 µg/mL | 32 µg/mL | 16 µg/mL | – |

| Structure (SMILES) | reduced retention time t’R [1] | MIC C. albicans ([2]; ATCC 10231, 24 h) | MIC C. glabrata ([3]; ATCC 15126, 24 h) | MIC C. lipolytica [4] | MIC C. tropicalis ([5]; PCM 2709-FY) | MIC E. coli ([6]; ATCC 25922, 18 h) | MIC P. aeruginosa ([7]; ATCC 9027, 18 h) | MIC S. epidermidis ([8]; ATCC 14990, 18 h) | MBIC C. albicans ([9]; ATCC 10231, 24 h) | MBIC C. glabrata ([10]; ATCC 15126, 24 h) | MBIC C. lipolytica ([11]; 24 h) | MBIC C. tropicalis ([12]; PCM 2709-FY, 24 h) | MBIC E. coli ([13]; ATCC 25922, 24 h) | MBIC P. aeruginosa ([14]; ATCC 9027, 24 h) | MBIC S. aureus ([15]; ATCC 25923, 24 h) | MBIC S. epidermidis ([16]; ATCC 14990, 24 h) | other results |
| --- | --- | --- | --- | --- | --- | --- | --- | --- | --- | --- | --- | --- | --- | --- | --- | --- | --- |
| CCCCCCCCCCCCCCCC(=O)N[C@H]1CSSC[C@@H](C(N)=O)NC(=O)[C@H](CCCCN)NC(=O)[C@H](CCCCN)NC(=O)[C@H](CCCCN)NC(=O)[C@H](CCCCN)NC1=O [C2, C16-CKKKKC-NH2] (Palmitoyl-CKKKKC-NH2; disulfide 1-6) | 15.95 min | – | – | – | – | – | – | – | – | – | – | – | – | – | – | – | ∆tR ([1]; tR of cyclic analog − tR of parent lipopeptide, RP-HPLC, RP-18, 20–65% acetonitrile over 30 min): +1.18 min; MIC C. albicans [2, 17]: 4 µg/mL (≈ 4.11 µM); MIC C. glabrata [3, 17]: 4 µg/mL (≈ 4.11 µM); MIC C. lipolytica [4, 18]: 2 µg/mL (≈ 2.06 µM); MIC C. tropicalis [5, 18]: 2 µg/mL (≈ 2.06 µM); MIC E. coli [6, 19]: 64 µg/mL (≈ 65.8 µM); MIC P. aeruginosa [7, 19]: 32 µg/mL (≈ 32.9 µM); MIC S. epidermidis [8, 19]: 8 µg/mL (≈ 8.23 µM); MBIC C. albicans [9, 20]: 16 µg/mL; MBIC C. glabrata [10, 20]: 32 µg/mL; MBIC C. lipolytica [11, 20]: 8 µg/mL; MBIC C. tropicalis [12, 20]: 8 µg/mL; MBIC E. coli [13, 20]: 32 µg/mL; MBIC P. aeruginosa [14, 20]: 64 µg/mL; MBIC S. aureus [15, 20]: 16 µg/mL; MBIC S. epidermidis [16, 20]: 4 µg/mL |
